According to article PMC6271036, “Antimalarial Evaluation of the Chemical Constituents of Hairy Root Culture of Bixa orellana L” (Molecules, 2014):
“Also recorded” adds a separate entry of the source.

Key:
[1] = system: malaria strains 3D7 and K1; test: in vitro anti-plasmodium activity, strain not told apart; assay type: cell-based, Plasmodium falciparum
Procedure: (§1) The crude extract from culture medium and roots (compound 17), a combination of MeJA derivatives (compound 16), and its individual isolated components were tested in vitro for anti-plasmodium activity against malaria strains 3D7 and K1, as described in previously developed assays. Pure compounds were prepared as 10 mM or 2 mM stock solutions in DMSO.
Parasites were grown in Petri dishes in the presence of fresh group O-positive erythrocytes (hematocrit 4%–6%) in RPMI 1640 (pH 7.3) supplemented with 0.5% AlbuMAX II, 25 mM HEPES, 25 mM NaHCO3, 100 μg/mL hypoxanthine, and 5 μg/mL gentamycin. Cultures were incubated at 37 °C with 5% O2 and 5% CO2. Compounds were prepared as 10 mM stock solutions in DMSO (except compound 18) to measure EC50. The stock solutions were plated in 384-well plates, serially diluted (1:3) in DMSO. Compounds were then transferred to a 384-well assay plate containing 20 μL of RPMI 1640 with 5 μg/mL gentamycin by using a 384-head pin tool. Twenty μL of a synchronized culture suspension (1% rings, 4% hematocrit) was added to each well (final hematocrit and parasitemia, of 2% and 1%, respectively). The final DMSO concentration was 0.65%. Assay plates were incubated for 72 h and parasitemia was measured by using a previously described DNA stain-based assay. The MAR3D7 growth inhibition assay was used for the chloroquine-sensitive 3D7 strain of P. falciparum, and quantified growth by using DNA dyes. The experiment required a total of 96 h, including a 72 h incubation with test compounds. Positive controls were chloroquine and mefloquine. The MARK1 growth inhibition assay was used for the K1 strain of P. falciparum, known to be resistant to both chloroquine and pyrimethamine due to expression of the chloroquine resistance transporter and upregulation of the multi-drug resistance efflux pump. Growth was quantitated by using DNA dyes. The experiment required a total of 96 h, including a 72 h incubation with test compounds. Positive controls were chloroquine and mefloquine.

[2] = system: W2 strain of P. falciparum; parameters: method as in earlier work; settings: 15 mg/Kg, mice; cited from earlier work
[3] = system: chloroquine-sensitive 3D7 strain of P. falciparum; test: MAR3D7 growth inhibition assay (DNA dye); assay type: cell-based, Plasmodium falciparum; settings: 72 h incubation
Procedure: as §1
(§2) Parasites were grown in Petri dishes in the presence of fresh group O-positive erythrocytes (hematocrit 4%–6%) in RPMI 1640 (pH 7.3) supplemented with 0.5% AlbuMAX II, 25 mM HEPES, 25 mM NaHCO3, 100 μg/mL hypoxanthine, and 5 μg/mL gentamycin. Cultures were incubated at 37 °C with 5% O2 and 5% CO2. Compounds were prepared as 10 mM stock solutions in DMSO (except compound 18) to measure EC50. The stock solutions were plated in 384-well plates, serially diluted (1:3) in DMSO. Compounds were then transferred to a 384-well assay plate containing 20 μL of RPMI 1640 with 5 μg/mL gentamycin by using a 384-head pin tool. […] Assay plates were incubated for 72 h and parasitemia was measured by using a previously described DNA stain-based assay. The MAR3D7 growth inhibition assay was used for the chloroquine-sensitive 3D7 strain of P. falciparum, and quantified growth by using DNA dyes. […] Growth was quantitated by using DNA dyes. […]

[4] = system: K1 strain of P. falciparum; test: MARK1 growth inhibition assay (DNA dye); assay type: cell-based, Plasmodium falciparum; settings: 72 h incubation
Procedure: as §1, §2

Molecule | antimalarial activity (in words) [1] | in vivo antimalarial activity [2] | EC50 [3] | EC50 [4]
C[C@H]1CCC[C@@]23CC4C(C[C@]12C)C4(C)C3 [Compound 1, (2aS,6S,6aR)-1,6,6a-trimethyldecahydro-1,2a-methanocyclopropa[b]naphthalene] | promising antimalarial activity | – | – | –
CC(C)=CCC/C(C)=C/CC/C(C)=C/CC[C@]1(C)CCc2cc(O)cc(C)c2O1 [Compound 3, δ-tocotrienol] | promising antimalarial activity | – | – | –
CC[C@H](CC[C@@H](C)[C@H]1CC[C@H]2[C@@H]3CC=C4C[C@@H](O)CC[C@]4(C)[C@H]3CC[C@]12C)C(C)C [Compound 6, β-sitosterol] | – | active | – | –
C[C@@H]1CC[C@]2(C(=O)O)CC[C@]3(C)C(=CC[C@@H]4[C@@]5(C)C[C@@H](O)[C@H](O)C(C)(C)[C@@H]5CC[C@]43C)[C@@H]2[C@]1(C)O [tormentic acid, reference compound] | – | active | – | –
(3S,9S,10S,13R,17R)-17-((2R,5S,E)-5-ethyl-6-methylhept-3-en-2-yl)-9,10,13-trimethyl-2,3,4,7,8,9,10,11,12,13,14,15,16,17-tetradecahydro-1H-cyclopenta[a]phenanthren-3-ol [Compound 5] | promising antimalarial activity; also recorded: most potent compound lead | – | 3 µM | 5 µM
